These are literature values, as cited in patent US20250214928A1 (priority 2023, published 2025).

In data set [1] the test system is kainic acid-induced status epilepticus model. The following applies: mouse study, ref. [5].
The test system of data set [2] is tumor-specific antigens (CEA, CA 19/9, CA 125, prostate-specific antigen). The settings on record: meta-analysis of phase I/II trials, over 400 patients, dose-dependent, ref. [9].

For the compound `CNC(=O)[C@@H](NC(=O)[C@H](CC(C)C)[C@H](O)C(=O)NO)C(C)(C)C` [marimastat, (2R,3S)-N-1-((S)-3,3-dimethyl-1-methylamino-1-oxobutan-2-yl)-N-4,3-dihydroxy-2-isobutylsuccinamide], in data set [1], the duration of seizures result is on record as “reduced” and the number of seizures result is recorded as “reduced”. The “growth indicators of tumor-specific antigens (all four)” value in data set [2] is reported as “significantly reduced”.
